Data reported in patent US20200181104A1, “SSAO INHIBITORS AND USES THEREOF” (METACRINE, INC., priority 2018, published 2020).
Where a name gives a salt, the structure may show the parent alone.

molecular target: T1, Recombinant Human SSAO/VAP-1/AOC3 (Homo sapiens, UniProt Q16853); test: Human Semicarbazide-Sensitive Amine Oxidase (SSAO) Assay; assay type: biochemical; settings: recombinant enzyme, 30 minutes preincubation at 37° C., benzylamine substrate, Amplex Ultra Red/HRP fluorescence
T1 construct: purchased R&D systems 3957-AO
T1 sequence (Q16853 1-763): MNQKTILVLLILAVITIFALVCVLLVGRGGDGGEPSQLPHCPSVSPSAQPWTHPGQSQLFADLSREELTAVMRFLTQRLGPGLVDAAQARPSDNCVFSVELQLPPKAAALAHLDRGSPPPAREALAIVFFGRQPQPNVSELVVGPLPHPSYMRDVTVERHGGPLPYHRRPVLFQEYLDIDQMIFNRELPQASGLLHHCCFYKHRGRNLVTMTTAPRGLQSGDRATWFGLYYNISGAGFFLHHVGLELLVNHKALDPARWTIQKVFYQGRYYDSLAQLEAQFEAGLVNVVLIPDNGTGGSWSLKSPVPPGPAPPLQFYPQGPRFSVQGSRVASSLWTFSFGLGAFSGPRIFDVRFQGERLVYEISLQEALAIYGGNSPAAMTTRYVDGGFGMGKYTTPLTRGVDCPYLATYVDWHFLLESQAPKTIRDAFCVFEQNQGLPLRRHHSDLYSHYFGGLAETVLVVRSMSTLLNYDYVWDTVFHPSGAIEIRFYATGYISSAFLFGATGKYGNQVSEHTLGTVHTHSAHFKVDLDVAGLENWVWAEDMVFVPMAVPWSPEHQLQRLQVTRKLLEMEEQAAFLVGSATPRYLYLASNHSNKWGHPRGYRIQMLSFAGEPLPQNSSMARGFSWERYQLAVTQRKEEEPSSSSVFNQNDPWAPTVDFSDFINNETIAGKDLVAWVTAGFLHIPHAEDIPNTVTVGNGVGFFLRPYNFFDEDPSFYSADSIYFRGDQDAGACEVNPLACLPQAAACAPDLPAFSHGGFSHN
Procedure: Compounds were dissolved in DMSO to provide a Concentration Response Curve (CRC; at 500 times the final concentration) over a range of 6-10 dilutions.
Recombinant Human SSAO/VAP-1/AOC3 (R&D systems; Catalog #3957-AO) was used to screen compound potency in vitro, according to previously described methods (J Pharmacol Exp Ther. 2013 November; 347(2):365-74). SSAO enzyme was suspended in 50 mM HEPES buffer to a working concentration of 2.5 μg/ml and 40 μL of this enzyme mixture was then added to each well of a F16 Black Maxisorp 96 well Plate (Nunc, Catalog #475515). Ten microliters of each test compound (at 5 times the final concentration) were added to each well, resulting in a final well volume of 50 μL of the enzyme and inhibitor mixture. The compounds were preincubated with the enzyme for 30 minutes at 37° C., prior to the addition of a 40 μL volume of Amplex Ultra Red (125 uM AUR; Molecular Probes, Catalog # A36006)/Horseradish peroxidase (2.5 U/ml HRP; Sigma-Aldrich Catalog # P8375) oxidase detection reagent containing cytochrome C ([…]; Sigma-Aldrich Catalog # C7752). Cytochrome C was included in the AUR/HRP detection mixture to reduce the background fluorescence that can occur via the spontaneous redox reaction between AUR and HRP. The SSAO enzyme reaction was then initiated by adding 10 μL of the SSAO substrate, benzylamine (Sigma-Aldrich Catalog # B5136), and SSAO activity was measured in kinetic mode over a 30-120 minute sampling period (excit. 544 nm; emit 590 nm; cut off 570 nm; medium gain) to obtain IC50 values for enzyme activity in each treatment well.

IC50, ≤ 10 nM:
CC1(C)CCC(NC(=O)C23CCC(c4ccc(OC/C(=C/F)CN)cc4)(CC2)CC3)CO1 (stereo not drawn) [Compound 2.153, (E)-4-(4-((2-(aminomethyl)-3-fluoroallyl)oxy)phenyl)-N-(6,6-dimethyltetrahydro-2H-pyran-3-yl)bicyclo[2.2.2]octane-1-carboxamide]
NC/C(=C\F)COc1ccc(C23CCC(C(=O)N4CCCCC4)(CC2)CC3)cc1 [Compound 2.24, (E)-(4-(4-((2-(amino-methyl)-3-fluoroallyl)oxy)phenyl)bicyclo [2.2.2]octan-1-yl)(piperidin-1-yl)methanone]
CC1(C)CC(NC(=O)C23CC(c4ccc(OC/C(=C/F)CN)cc4)(C2)C3)CC(C)(C)O1 [Compound 3.02, (E)-3-(4-((2-(aminomethyl)-3-fluoroallyl)oxy)phenyl)-N-(2,2,6,6-tetramethyltetrahydro-2H-pyran-4-yl)bicyclo[1.1.1]pentane-1-carboxamide]
NC/C(=C\F)COc1ccc(C23CCCC(C(=O)NC4CCOCC4)(CC2)C3)cc1 (stereo not drawn) [Compound 5.01, 5-(4-(((E)-2-(Aminomethyl)-3-fluoroallyl)oxy)phenyl)-N-(tetrahydro-2H-pyran-4-yl)bicyclo[3.2.1]octane-1-carboxamide Hydrochloride]
CCO[C@H]1C[C@@H](NC(=O)C23CCC(c4ccc(OC/C(=C/F)CN)cc4)(CC2)CC3)C1 [Compound 2.150, 4-(4-(((E)-2-(aminomethyl)-3-fluoroallyl)oxy)phenyl)-N-((1s,3s)-3-ethoxycyclobutyl)bicyclo[2.2.2] octane-1-carboxamide]
COCCNC(=O)C12CC(c3ccc(OC/C(=C/F)CN)cc3)(C1)C2 [Compound 3.03, (E)-3-(4-((2-(aminomethyl)-3-fluoroallyl)oxy)phenyl)-N-(2-methoxyethyl)bicyclo[1.1.1] pentane-1-carboxamide]
CNC(=O)[C@H]1C2CC3CC1C[C@@](c1ccc(OC/C(=C/F)CN)cc1)(C3)C2 (single isomer, unassigned) [Compound 6, anti-5-(4-(((E)-2-(Aminomethyl)-3-fluoroallyl)oxy)phenyl)-N-methyladamantane-2-carboxamide Hydrochloride]
NC/C(=C\F)COc1ccc(C23CCC(C(=O)N4CC[C@@H]4CO)(CC2)CC3)cc1 [Compound 2.78, (R,E)-(4-(4-((2-(aminomethyl)-3-fluoroallyl)oxy)phenyl)bicyclo [2.2.2]octan-1-yl)(2-(hydroxymethyl)azetidin-1-yl)methanone]
CN(C(=O)C12CCC(c3ccc(OC/C(=C/F)CN)cc3)(CC1)CC2)C1CCOCC1 [Compound 2.16, (E)-4-(4-((2-(amino-methyl)-3-fluoroallyl)oxy)phenyl)-N-methyl-N-(tetrahydro-2H-pyran-4-yl)bicyclo[2.2.2] octane-1-carboxamide]
CC(NC(=O)C12CCC(c3ccc(OC/C(=C/F)CN)cc3)(CC1)CC2)C1CCOCC1 (stereo not drawn) [Compound 2.19, (E)-4-(4-((2-(amino-methyl)-3-fluoroallyl)oxy)phenyl)-N-(1-(tetrahydro-2H-pyran-4-yl)ethyl)bicyclo[2.2.2] octane-1-carboxamide]
COC(C)(C)CNC(=O)C12CCC(c3ccc(OC/C(=C/F)CN)cc3)(CC1)CC2 [Compound 2.97, (E)-4-(4-((2-(aminomethyl)-3-fluoroallyl)oxy)phenyl)-N-(2-methoxy-2-methylpropyl)bicyclo[2.2.2] octane-1-carboxamide]
NC/C(=C\F)COc1ccc(C23CCC(C(=O)NCCCCl)(CC2)CC3)cc1 [Compound 2.26, (E)-4-(4-((2-(aminomethyl)-3-fluoroallyl)oxy)phenyl)-N-(3-chloropropyl)bicyclo[2.2.2] octane-1-carboxamide]
